Source: patent US10947213B1 (Merck Patent GmbH, priority 2015, dated 2021)
Structures can show the parent of a compound that is named as a salt.

target: T1, TLR7/NFKb HEK cells (Homo sapiens, UniProt Q9NYK1); test: HEK Cell Assay (TLR7/NFKb reporter, Steady-Glo luciferase readout); assay type: cell-based; settings: 30 min compound preincubation, then R*48 agonist for 5 hours, read-out: Potency
T1 construct: expressed in transfected cells; host or cells: HEK cells (TLR7/NFKb reporter line)
T1 sequence (Q9NYK1 27-1049): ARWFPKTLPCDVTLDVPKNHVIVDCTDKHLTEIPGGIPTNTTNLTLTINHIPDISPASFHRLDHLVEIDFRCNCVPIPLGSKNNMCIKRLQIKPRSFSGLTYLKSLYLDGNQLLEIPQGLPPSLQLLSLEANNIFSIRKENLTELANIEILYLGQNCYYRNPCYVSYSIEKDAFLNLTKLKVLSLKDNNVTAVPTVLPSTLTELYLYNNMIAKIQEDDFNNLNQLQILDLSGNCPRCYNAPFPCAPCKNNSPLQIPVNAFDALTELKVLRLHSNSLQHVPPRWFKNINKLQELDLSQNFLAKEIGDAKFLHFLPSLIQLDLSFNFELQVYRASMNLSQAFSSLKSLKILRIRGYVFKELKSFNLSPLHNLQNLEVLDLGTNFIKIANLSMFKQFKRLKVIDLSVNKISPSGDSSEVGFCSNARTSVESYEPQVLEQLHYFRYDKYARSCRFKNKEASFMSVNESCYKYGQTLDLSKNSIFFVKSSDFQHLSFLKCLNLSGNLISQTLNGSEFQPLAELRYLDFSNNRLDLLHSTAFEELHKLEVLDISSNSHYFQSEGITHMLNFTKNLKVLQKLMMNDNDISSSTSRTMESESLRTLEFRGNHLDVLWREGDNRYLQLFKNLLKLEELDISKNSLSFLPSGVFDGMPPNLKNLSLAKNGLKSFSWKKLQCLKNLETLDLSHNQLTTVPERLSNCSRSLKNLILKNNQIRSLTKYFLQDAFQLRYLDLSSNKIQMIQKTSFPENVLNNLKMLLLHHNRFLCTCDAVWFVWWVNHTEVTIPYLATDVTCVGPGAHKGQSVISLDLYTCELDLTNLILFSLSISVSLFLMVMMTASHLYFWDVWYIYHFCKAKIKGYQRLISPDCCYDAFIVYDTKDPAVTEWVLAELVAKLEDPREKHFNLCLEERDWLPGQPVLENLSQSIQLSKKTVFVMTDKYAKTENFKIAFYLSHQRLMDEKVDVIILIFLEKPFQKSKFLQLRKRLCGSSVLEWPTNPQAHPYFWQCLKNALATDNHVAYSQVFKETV
Description: Example 142: HEK Cell Assay
Into 384 CulturePlates (Corning 3707) was placed 5000 c/w of TLR7/NFKb HEK cells in 30 uL DMEM without Phenil red (gibco #31053) and 10% i.a. FCS and 2 mM L-ZGLutamin. The cells were incubated for 24 h at 37° C., 10% carbon dioxide and 90% relative humidity. 3 uL of controls, standards, and compounds were dispensed into wells, incubated for 30 min then 3 uL of R*48 agonist in 20 mM Hepes was added. After incubation for 5 hours, they were allowed to stand at room temperature for 15 min. To this was added 10 uL of Steady-Glo substrate reagent and shake assay plate for 5 min at 1500 rpm. The assay plate was allowed to sit for 30 min at room temperature and then the plate was read on EnVision.

| SMILES | IC50 [nM] |
| --- | --- |
| CCN(CC)C1CCN(C(=O)C2CCN(c3ccnc4nccnc34)CC2)CC1 [Compound 2, (4-(diethylamino)piperidin-1-yl)(1-(pyrido[2,3-b]pyrazin-8-yl)piperidin-4-yl)methanone] | 1000 to 10000 |
| C[C@H]1C[C@@H](NC(=O)C2CCN(C)C2)CN(c2ccc(C(F)(F)F)c3nccnc23)C1 (stereo partly drawn) [Compound 258, 1-methyl-N-[(3R,5S)-5-methyl-1-[8-(trifluoromethyl)quinoxalin-5-yl]piperidin-3-yl]pyrrolidine-3-carboxamide] | < 1000 |
| C[C@@H]1CN(c2ccnc3nccnc23)C[C@H](CN2CCC(N3CCCCC3)CC2)O1 [Compound 58, (2S,6R)-2-(1,4′-bipiperidin-1′-ylmethyl)-6-methyl-4-(pyrido[2,3-b]pyrazin-8-yl)morpholine] | < 1000 |
| CCN(C)[C@@H](C)C(=O)N[C@@H]1C[C@H](C)CN(c2ccnc3nccnc23)C1 [Compound 101, (2S)-2-[ethyl(methyl)amino]-N-[(3R,5S)-5-methyl-1-[pyrido[2,3-b]pyrazin-8-yl]piperidin-3-yl]propanamide] | 1000 to 10000 |
| COCCN[C@@H]1C[C@H](C)CN(c2ccc(C(F)F)c3ncccc23)C1 [Compound 206, (3R,5S)-1-[8-(difluoromethyl)quinolin-5-yl]-N-(2-methoxyethyl)-5-methylpiperidin-3-amine] | < 1000 |
| CCN(CC)CC(=O)NCC1CCN(c2ccc(C#N)c3ncncc23)CC1 [Compound 395, N-[1-(8-Cyano-quinazolin-5-yl)-piperidin-4-ylmethyl]-2-diethylamino-acetamide] | 1000 to 10000 |
| C[C@H]1C[C@@H](NC(=O)CC2CCCN(C)C2)CN(c2ccc(C#N)c3nccnc23)C1 (stereo partly drawn) [Compound 266, N-[(3R,5S)-1-(8-cyanoquinoxalin-5-yl)-5-methylpiperidin-3-yl]-2-(1-methylpiperidin-3-yl)acetamide hydrochloride] | < 1000 |
| C[C@H]1C[C@@H](NC(=O)CN(C)CCO)CN(c2ccc(C#N)c3nccnc23)C1 [Compound 144, N-[(3R,5S)-1-(8-cyanoquinoxalin-5-yl)-5-methylpiperidin-3-yl]-2-[(2-hydroxyethyl)(methyl)amino]acetamide] | < 1000 |
| N#Cc1ccc(N2CCC(C(=O)NCCN3CCCCC3)CC2)c2cccnc12 [Compound 403, 1-(8-Cyano-quinolin-5-yl)-piperidine-4-carboxylic acid (2-piperidin-1-yl-ethyl)-amide] | < 1000 |
| N#Cc1ccc(N2CCC(CNC(=O)CN3CCCCC3)CC2)c2cccnc12 [Compound 409, N-[1-(8-Cyano-quinolin-5-yl)-piperidin-4-ylmethyl]-2-piperidin-1-yl-acetamide] | < 1000 |
| COCCN[C@H]1CN(c2ccc(C#N)c3nccnc23)CC(C)(C)C1 [Compound 216, 8-[(5R)-5-[(2-methoxyethyl)amino]-3,3-dimethylpiperidin-1-yl]quinoxaline-5-carbonitrile] | < 1000 |
| CC(C(=O)N[C@@H]1C[C@H](C)CN(c2ccc(C(F)(F)F)c3nccnc23)C1)N1CC(N)C1 (single isomer, unassigned) [Compound 369] | < 1000 |

The remaining lines, values ahead:

| IC50 [nM] | SMILES |
| --- | --- |
| 1000 to 10000 | C[C@H]1C[C@@H](N)CN(c2ccnc3ccccc23)C1 [Compound 11, (3R,5S)-5-methyl-1-(quinolin-4-yl)piperidin-3-amine] |
| 1000 to 10000 | COc1ccc(N2C[C@@H](C)C[C@@H](NC(=O)CN(C)C)C2)c2cccnc12 [Compound 193, 2-(dimethylamino)-N-[(3R,5S)-1-(8-methoxyquinolin-5-yl)-5-methylpiperidin-3-yl]acetamide] |
| < 1000 | C[C@@H]1C[C@H](C(=O)NCC2CCN(C)CC2)CN(c2ccc(C(F)(F)F)c3ncccc23)C1 (relative stereo) [Compound 547, cis-5-Methyl-1-(8-trifluoromethyl-quinolin-5-yl)-piperidine-3-carboxylic Acid (1-methyl-piperidin-4-ylmethyl)-amide] |
| < 1000 | C[C@H]1C[C@@H](NC(=O)CO)CN(c2ccc(C#N)c3nccnc23)C1 [Compound 97, N-[(3R,5S)-1-(8-cyanoquinoxalin-5-yl)-5-methylpiperidin-3-yl]-2-hydroxyacetamide] |
| < 1000 | C[C@H]1C[C@@H](NC(=O)CC2CC2(F)F)CN(c2ccc(C(F)(F)F)c3ncccc23)C1 (stereo partly drawn) [Compound 286, 2-(2,2-difluorocyclopropyl)-N-[(3R,5S)-5-methyl-1-[8-(trifluoromethyl)quinolin-5-yl]piperidin-3-yl]acetamide] |
| 1000 to 10000 | C[C@H]1C[C@@H](NC(=O)C2CC(F)(F)C2)CN(c2ccc(C(F)(F)F)c3nccnc23)C1 [Compound 257, 3,3-difluoro-N-[(3R,5S)-5-methyl-1-[8-(trifluoromethyl)quinoxalin-5-yl]piperidin-3-yl]cyclobutane-1-carboxamide] |
| < 1000 | CCN(C)CCNC(=O)C1CCN(c2ccc(C(F)(F)F)c3ncccc23)CC1 [Compound 436, 1-(8-Trifluoromethyl-quinolin-5-yl)-piperidine-4-carboxylic acid [2-(ethyl-methyl-amino)-ethyl]-amide] |
| < 1000 | C[C@H]1C[C@@H](NC(=O)CO)CN(c2ccc(C(F)(F)F)c3nccnc23)C1 [Compound 250, 2-hydroxy-N-[(3R,5S)-5-methyl-1-[8-(trifluoromethyl)quinoxalin-5-yl]piperidin-3-yl]acetamide] |
| < 1000 | C[C@H]1C[C@@H](NC(=O)C(C)(C)C2CCN(C)CC2)CN(c2ccc(C(F)(F)F)c3ncccc23)C1 [Compound 351, 2-methyl-N-[(3R,5S)-5-methyl-1-[8-(trifluoromethyl)quinolin-5-yl]piperidin-3-yl]-2-(1-methylpiperidin-4-yl)propanamide] |
| < 1000 | CC1CCCC(C)N1CCNC(=O)C1CCN(c2ccc(C#N)c3ncccc23)CC1 (stereo not drawn) [Compound 414, 1-(8-Cyano-quinolin-5-yl)-piperidine-4-carboxylic Acid [2-(2,6-dimethyl-piperidin-1-yl)-ethyl]-amide] |
| < 1000 | C[C@H]1C[C@@H](NCC(N)=O)CN(c2ccc(C(F)(F)F)c3ncccc23)C1 [Compound 570] |
| 1000 to 10000 | CCN(CC)CCNCC1CCN(c2cc(C)nc3ccc(F)cc23)CC1 [Compound 374, N,N-diethyl-N′-[1-(6-fluoro-2-methyl-quinolin-4-yl)-piperidin-4-ylmethyl]-ethane-1,2-diamine] |
| < 1000 | C[C@H]1C[C@@H](N)CN(c2ccnc3nccnc23)C1 [Compound 10, (3R,5S)-5-methyl-1-(pyrido[2,3-b]pyrazin-8-yl)piperidin-3-amine] |
| < 1000 | CC(C)(C)CC(=O)N[C@H]1C[C@@H](C(F)(F)F)CN(c2ccc(C#N)c3nccnc23)C1 (relative stereo) [Compound 85, cis-N-[1-(8-cyanoquinoxalin-5-yl)-5-(trifluoromethyl)piperidin-3-yl]-3,3-dimethylbutanamide] |
| < 1000 | CN1CCC(CNC(=O)C2CN(c3ccc(C#N)c4ncccc34)CC(F)(F)C2)CC1 (single isomer, unassigned) [Compound 546] |
| > 10000 | COC(C)C(=O)N[C@@H]1C[C@H](C)CN(c2ccnc3nccnc23)C1 (single isomer, unassigned) [Compound 161] |
| 1000 to 10000 | CC(C)[C@H](O)C(=O)NC1CC(C2CC2)CN(c2ccc(C#N)c3nccnc23)C1 (single isomer, unassigned) [Compound 173] |
| < 1000 | N#Cc1ccc(N2CC(N)CC(F)(F)C2)c2nccnc12 (single isomer, unassigned) [Compound 75] |
